# Reference: patent publication US20260101915A1, “APIGENIN GLYCOSIDES FLAVOR ENHANCERS” (priority 2019, published 2026)
# Tests used:
# pinellic acid formation [1] = assay: Pinellic acid concentration in whole wheat bread (LC/MS/MS)
# Method: (§1) The concentration of pinellic acid was analyzed for both control and treatment dough samples using the following method: The 15 mg of dough (or 27 mg of bread) was extracted with 1 mL 1:1 IPA/H2O (v/v) spiked with prostaglandin-F2α ([…]) ISTD. Samples were sonicated for 10 min followed by shaking using the GenoGrinder at 1000 rpm for 10 min. Samples were then diluted 1:50 and sample clean-up was carried out using a 96-well Oasis PRIME HLB plate (1 cc, 30 mg sorbent). After sample load (250 μL) and wash (750 μL, 10% acetonitrile (aq.) with 0.1% formic acid) steps, the retentate was eluted with 500 μL 90% acetonitrile (aq.) with 0.1% formic acid. Samples were further diluted to 2 mL using water with 0.1% formic acid. The standard calibration curve was prepared using 6-points ranging from 0.24 ng/ml to 500 ng/mL.
# Quantitative analysis was conducted using MRM acquisition. LC/MS/MS analysis was conducted using a Waters ACQUITY H-class UPLC system coupled with a Xevo TQ-S mass spectrometer (Waters Co.). […]
# Wheat breads were made using a modified AACC straight-dough bread-making method (AACC, 1999). […] The concentration of pinellic acid was analyzed for both control and spiking whole wheat bread samples as described for the dough analysis. […]
# pinellic acid formation [2] = assay: Pinellic acid concentration in HRW Everest flour dough (LC/MS/MS); conditions: treatment dough (946.5 ng Schaftoside in 12 μL water per 15 mg HRW Everest flour) vs control; pvalue <0.05
# Method: For the dough analysis 15 mg of Hard Red Winter (“HRW”) Everest flour was weighed into 2 Eppendorf tubes containing one ¼ inch stainless steel balls, followed by the addition of 12 μL of water (4:5 water/flour ratio) to make a control dough sample. The treatment dough sample was similarly prepared to the control sample with the exception that 946.5 ng of Schaftoside in 12 μL of water (4:5 water/flour ratio) was added instead of pure water.
# as §1
# Quantitative analysis was conducted using MRM acquisition. […]
# [3] = Paired sensory difference test of whole wheat bread bitterness (20 panelists); format: in vivo; conditions: paired comparison, 20 participants, nose clips, bread crumb chewed 10 seconds; Pvalue <0.05
# Source text: Twenty participants were recruited by Flavor Research and Education Center (FREC) at The Ohio State University. The whole wheat bread samples (control and treatment) were cut into 3 cm×2 cm×1 cm (L×W×H) squares of crumb the day before the test and stored at room temperature in sealed 2 oz cups labeled with a 3-digit codes. Each panelist evaluated one pair of samples containing the control sample and the treatment sample. Panelists used nose clips during the evaluation in order to prevent interactions with olfactory responses. Panelists were instructed to place the entire piece of bread crumb in their mouth, chew for 10 seconds, and evaluate the maximum bitter intensity perceived. After evaluating each sample in the pair, panelists were asked to choose the most bitter sample. The serving order of each bread sample was balanced. Water was used as a palate cleanser.
# Compusense Cloud Software version 7.2 (Compusense, Guelph, Canada) was used for data collection. Approval of the sensory evaluation protocol was granted by the Ethics Committee, The Ohio State University (IRB #2019B0402). Paired Student t-tests was executed with SPSS Statistics Version 25 (International Business Machines Corp., Armonk, NY).
structure (smiles),measurement,setting,value
"O=c1cc(-c2ccc(O)cc2)oc2c([C@@H]3OC[C@H](O)[C@H](O)[C@H]3O)c(O)c([C@@H]3O[C@H](CO)[C@@H](O)[C@H](O)[C@H]3O)c(O)c12 [Schaftoside, schaftoside]",pinellic acid concentration in treatment bread,"pinellic acid formation [1]; schaftoside raised from 88.4 to 151.5 mg/kg (68.1 mg/kg flour added) prior to bread making, control bread 308.64 mg/kg, pvalue <0.05",228.6 mg/kg
same,reduction in pinellic acid formation,"pinellic acid formation [1]; treatment vs control, schaftoside added to flour prior to bread making",26%
same,reduction in pinellic acid content,pinellic acid formation [2],30%
same,perceived bitterness of treatment bread vs control bread,[3],significantly less bitter
